US20260256792A1, “TREATMENT OF CHRONIC SPONTANEOUS URTICARIA BY ADMINISTERING (R)-2-[3-[4-AMINO-3-(2-FLUORO-4-PHENOXY-PHENYL)PYRAZOLO[3,4-D]PYRIMIDIN-1-YL]PIPERIDINE-1-CARBONYL]-4-METHYL-4-[4-(OXETAN-3-YL)PIPERAZIN-1-YL]PENT-2-ENENITRILE” (priority 2023, published 2026)

Tested on: moderate-to-severe chronic spontaneous urticaria (CSU)
Assay: Phase 2 CSU study: urticaria activity score over 7 days (UAS7)
Type: in vivo, human
Design: key to UAS7 Median / UAS7 Change from baseline Median / UAS7 change from baseline, Q1 / UAS7 change from baseline, Q3 / UAS7 change from baseline, Max / UAS7 Change from baseline LS Mean (SE): UAS7 points; daily UAS score ranges 0–6 points/day, over 7 days
Conditions: for UAS7 Post-baseline Mean (SD) / UAS7 % Change difference for rilzabrutinib vs. placebo LS Mean (95% CI) / UAS7 % Change from baseline LS Mean (SE) / UAS7 Change difference for rilzabrutinib vs. placebo LS Mean (95% CI) / UAS7 Change from baseline LS Mean (SE): Omalizumab-Naïve Population; for Change from Baseline in UAS7 at Week 12: LS Mean (SE) / Change from Baseline in UAS7 at Week 12: LS Mean Diff vs. placebo (95% CI) / Change from Baseline in UAS7 at Week 12: Mean (SD): Omalizumab-Naïve
Source text: The study comprises a 12 week, randomized, double-blind, placebo-controlled, multi-center, dose-ranging efficacy and safety phase, followed by a 40 week open label extension (OLE) phase (see FIG. 1). The study consists of three phases and an optional OLE phase. […] Clinically, CSU is characterized by the spontaneous and recurrent appearance of pruritic hives. The proposed primary endpoints were the UAS7 at Week 12 in EU and EU reference countries and the ISS7 in the US. Regardless of where a participant was from, all assessments were the same. The UAS7 score is a composite score containing both the HSS7 and the ISS7. This allowed a global assessment of the two key components of urticaria: hives and itch. […] The UAS is a validated PRO measure. […] The daily UAS scores range from 0 to 6 point/day. […] Patients were to complete the UAS using the e-diary. […] The following secondary endpoints were to be analyzed using the same approach as for the primary endpoint: • Change from baseline in UAS7 at Week 4 • Change from baseline in UAS7 at Week 12 (for US and US reference countries) • Change from baseline in ISS7 at Week 12 (except US and US reference countries) • Change from baseline in HSS7 at Week 12 The following responder secondary endpoints were to be analyzed using the Cochran-Mantel-Haenszel test adjusted by region: • Proportion of participants with UAS7<6 at Week 12 • Proportion of participants with UAS7=0 at Week 12 Participants who received selected prohibited medications and/or rescue medications were to be considered as non-responders for time points after the medication usage. For other participants, all available data including those collected during the off-treatment period were to be used to determine the responder/non-responder status. Missing data were to be considered as non-responders.

[1] = Age group (years) <44 (Median), 400 mg BID
[2] = Age group (years) <44 (Median), 400 mg QPM
[3] = Age group (years) <44 (Median), 400 mg TID
[4] = Age group (years) <65, 400 mg BID
[5] = Age group (years) <65, 400 mg QPM
[6] = Age group (years) <65, 400 mg TID
[7] = Age group (years) ≥44 (Median), 400 mg BID

## CC(C)(C=C(C#N)C(=O)N1CCC[C@@H](n2nc(-c3ccc(Oc4ccccc4)cc3F)c3c(N)ncnc32)C1)N1CCN(C2COC2)CC1 [rilzabrutinib, (R)-2-[3-[4-amino-3-(2-fluoro-4-phenoxy-phenyl)pyrazolo[3,4-d]pyrimidin-1-yl]piperidine-1-carbonyl]-4-methyl-4-[4-(oxetan-3-yl)piperazin-1-yl]pent-2-enenitrile]
400 mg QPM, Week 3
  UAS7 Post-baseline Mean (SD): 22.01 (9.00)
400 mg QPM, Week 4
  UAS7 % Change difference for rilzabrutinib vs. placebo LS Mean (95% CI): −8.22%
  UAS7 % Change from baseline LS Mean (SE): −28.63 (5.66) %
  UAS7 Change difference for rilzabrutinib vs. placebo LS Mean (95% CI): −2.08
  UAS7 Change from baseline LS Mean (SE): −9.14 (1.66)
  UAS7 Post-baseline Mean (SD): 21.92 (8.82)
400 mg QPM, Week 5
  UAS7 Post-baseline Mean (SD): 20.63 (9.18)
400 mg QPM, Week 6
  UAS7 Post-baseline Mean (SD): 20.21 (10.42)
400 mg QPM, Week 7
  UAS7 Post-baseline Mean (SD): 21.11 (10.03)
400 mg QPM, Week 9
  UAS7 Post-baseline Mean (SD): 20.25 (10.25)
400 mg QPM, Week 10
  UAS7 Post-baseline Mean (SD): 20.27 (10.69)
400 mg QPM, Week 11
  UAS7 Post-baseline Mean (SD): 21.17 (11.16)
400 mg QPM, Week 12
  UAS7 % Change difference for rilzabrutinib vs. placebo LS Mean (95% CI): −4.51%
  UAS7 % Change from baseline LS Mean (SE): −34.79 (6.80) %
  UAS7 Change difference for rilzabrutinib vs. placebo LS Mean (95% CI): 0.40
  UAS7 Change from baseline LS Mean (SE): −9.74 (2.00)
400 mg TID, Week 1
  UAS7 % Change difference for rilzabrutinib vs. placebo LS Mean (95% CI): −27.13%
  UAS7 % Change from baseline LS Mean (SE): −36.60 (5.66) %
  UAS7 Change difference for rilzabrutinib vs. placebo LS Mean (95% CI): −7.89
  UAS7 Change from baseline LS Mean (SE): −11.44 (1.56)
  UAS7 Post-baseline Mean (SD): 17.77 (10.26)
400 mg TID, Week 2
  UAS7 % Change difference for rilzabrutinib vs. placebo LS Mean (95% CI): −27.13%
  UAS7 % Change from baseline LS Mean (SE): −44.90 (5.51) %
  UAS7 Change difference for rilzabrutinib vs. placebo LS Mean (95% CI): −7.73
  UAS7 Change from baseline LS Mean (SE): −13.63 (1.56)
  UAS7 Post-baseline Mean (SD): 15.65 (10.66)
400 mg TID, Week 3
  UAS7 % Change difference for rilzabrutinib vs. placebo LS Mean (95% CI): −27.19%
  UAS7 % Change from baseline LS Mean (SE): −47.14 (5.69) %
  UAS7 Change difference for rilzabrutinib vs. placebo LS Mean (95% CI): −6.90
  UAS7 Change from baseline LS Mean (SE): −13.83 (1.65)
  UAS7 Post-baseline Mean (SD): 15.37 (9.87)
400 mg TID, Week 4
  UAS7 % Change difference for rilzabrutinib vs. placebo LS Mean (95% CI): −26.33%
  UAS7 % Change from baseline LS Mean (SE): −46.75 (5.92) %
  UAS7 Change difference for rilzabrutinib vs. placebo LS Mean (95% CI): −6.60
  UAS7 Change from baseline LS Mean (SE): −13.66 (1.72)
  UAS7 Post-baseline Mean (SD): 14.65 (9.61)
400 mg TID, Week 5
  UAS7 Change difference for rilzabrutinib vs. placebo LS Mean (95% CI): −5.10
  UAS7 Change from baseline LS Mean (SE): −15.54 (1.72)
  UAS7 Post-baseline Mean (SD): 13.41 (10.60)
400 mg TID, Week 6
  UAS7 Post-baseline Mean (SD): 14.10 (11.23)
400 mg TID, Week 7
  UAS7 Post-baseline Mean (SD): 13.54 (9.34)
400 mg TID, Week 8
  UAS7 Post-baseline Mean (SD): 13.36 (9.81)
400 mg TID, Week 9
  UAS7 Post-baseline Mean (SD): 12.57 (9.72)
400 mg TID, Week 10
  UAS7 Post-baseline Mean (SD): 12.61 (9.89)
400 mg TID, Week 12
  UAS7 Post-baseline Mean (SD): 11.00 (9.90)
[1]
  Change from Baseline in UAS7 at Week 12: LS Mean (SE): −13.80 (2.95)
  Change from Baseline in UAS7 at Week 12: LS Mean Diff vs. placebo (95% CI): −5.42 (−13.05, 2.21)
  Change from Baseline in UAS7 at Week 12: Mean (SD): −11.98 (9.69)
[2]
  Change from Baseline in UAS7 at Week 12: LS Mean (SE): −9.54 (2.74)
  Change from Baseline in UAS7 at Week 12: Mean (SD): −10.45 (10.67)
[3]
  Change from Baseline in UAS7 at Week 12: LS Mean (SE): −16.19 (3.68)
  Change from Baseline in UAS7 at Week 12: LS Mean Diff vs. placebo (95% CI): −7.80 (−16.46, 0.86)
  Change from Baseline in UAS7 at Week 12: Mean (SD): −18.69 (10.55)
[4]
  Change from Baseline in UAS7 at Week 12: LS Mean (SE): −13.99 (2.04)
  Change from Baseline in UAS7 at Week 12: LS Mean Diff vs. placebo (95% CI): −3.58 (−9.19, 2.03)
  Change from Baseline in UAS7 at Week 12: Mean (SD): −13.91 (11.95)
[5]
  Change from Baseline in UAS7 at Week 12: LS Mean (SE): −9.12 (1.96)
  Change from Baseline in UAS7 at Week 12: LS Mean Diff vs. placebo (95% CI): 1.30 (−4.27, 6.86)
  Change from Baseline in UAS7 at Week 12: Mean (SD): −10.37 (9.46)
[6]
  Change from Baseline in UAS7 at Week 12: LS Mean (SE): −16.30 (2.11)
  Change from Baseline in UAS7 at Week 12: LS Mean Diff vs. placebo (95% CI): −5.88 (−11.58, −0.19)
  Change from Baseline in UAS7 at Week 12: Mean (SD): −18.19 (11.00)
[7]
  Change from Baseline in UAS7 at Week 12: LS Mean (SE): −15.12 (2.72)
  Change from Baseline in UAS7 at Week 12: LS Mean Diff vs. placebo (95% CI): −3.56 (−11.91, 4.80)
  Change from Baseline in UAS7 at Week 12: Mean (SD): −16.63 (13.80)
Age group (years) ≥44 (Median), 400 mg QPM
  Change from Baseline in UAS7 at Week 12: LS Mean (SE): −8.84 (2.81)
